Assay results as given in publication PMC10257182, “Discovery of senolytics using machine learning” (Nature Communications, 2023).
“And” between values parts separate entries of the source, which are not always exact repeats. Equal entries are not always repeated. Where two headings read alike, the source gives them in different places.

Experiments:
Format in all cases: cell-based, human
[1] = test system: non-senescent control IMR90 ER:RAS cells; assay: Nuclei count (Hoechst, high content imaging) senolytic assay, OIS model, non-senescent control cells; settings: for IC50: OIS model, non-senescent IMR90 ER:RAS, nuclei count, 72 h; for % Cell Survival: control
Method in brief: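 Readout is automated image-based counting of Hoechst-stained nuclei per well, with loss of cells relative to untreated wells taken as cell death. Senescent (4-OHT, 100 nM) and control IMR90 ER:RAS cells were exposed to compounds for 72 h at 10 nM to 10 μM final.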

[2] = test system: NOXA mRNA in senescent IMR90 ER:RAS cells; assay: NOXA mRNA expression by RT-qPCR, OIS; settings: for NOXA mRNA expression: relative to ER:STOP DMSO = 1, individual replicate values
Procedure: (§1) Total RNA was isolated using RNAeasy kit (Quiagen). cDNA was generated with reverse transcriptase iScript (Bio-Rad). RT-qPCR was performed using SYBR Select Master Mix (Applied Biosystems) in OneStepPlus detection system (Applied Biosystems). Oligos for amplification were: NOXA Fw-[…] and Rv-[…]; b-ACTIN Fw-[…] and Rv-[…]; IL1a Fw-[…] and Rv- […]; IL1b Fw-[…] and Rv- […]; IL8 Fw-[…] and Rv-[…]; p16 Fw-CGGTCGGAGGCCGATCCAG and Rv- […]; p21Fw-[…] and Rv- […].

[3] = test system: NOXA mRNA in IMR90 cells at passage 27; assay: NOXA mRNA expression by RT-qPCR, replicative senescence; settings: for NOXA mRNA expression: Replicative Senescence cells, relative to Control DMSO = 1, individual replicate values
Procedure: as §1

[4] = test system: Na+/K+ ATPase pump (intracellular K+) in IMR90 cells at passage 27; assay: Intracellular K+ determination with Asante staining, replicative senescence; settings: for Asante Mean intensity / Asante Mean intensity, group mean (Test details, Mean 2): Replicative Senescence cells; for Asante Mean intensity: individual replicate values; for Asante Mean intensity, group mean (Test details, Mean 2): mean of n=6
Procedure: (§2) Cells were cultured for control and senescent phenotype and then treated with the senolytics oleandrin, ouabain and periplocin at 10 nM for 72 h. Asante (Asante Potassium Green-2 AM, abcam ab142806) was added to the culture 30 min before fixation, following manufacturer instructions. DAPI staining was done before image acquisition on Nikon TI2 microscope (20x). Image analysis was performed using ImageJ 1.53k for setting intensity threshold and measuring mean intensity.

[5] = test system: Na+/K+ ATPase pump (intracellular K+) in senescent IMR90 ER:RAS cells; assay: Intracellular K+ determination with Asante staining, OIS; settings: for Asante Mean intensity / Mean (Asante Mean intensity, Tukey test details): FIG 4E, ER:RAS cells; for Asante Mean intensity: individual replicate values; for Mean (Asante Mean intensity, Tukey test details): mean of n=7
Procedure: as §2

CO[C@H]1C[C@H](O[C@H]2CC[C@]3(C)[C@H]4CC[C@]5(C)[C@@H](C6=CC(=O)OC6)CC[C@]5(O)[C@@H]4CC[C@]3(O)C2)O[C@H](C)[C@H]1O[C@@H]1O[C@H](CO)[C@@H](O)[C@H](O)[C@H]1O [Periplocin, periplocin]
Mean % Cell Survival ([1]; Control, log (dose) [M] -5, 72 h, mean n=3 (Fig 3C)): 18.4295% | Mean % Cell Survival ([1]; Control, log (dose) [M] -5.33, 72 h, mean n=3 (Fig 3C)): 19.4604% | Mean % Cell Survival ([1]; Control, log (dose) [M] -5.66, 72 h, mean n=3 (Fig 3C)): 23.5452% | Mean % Cell Survival ([1]; Control, log (dose) [M] -6, 72 h, mean n=3 (Fig 3C)): 29.0681% | Mean % Cell Survival ([1]; Control, log (dose) [M] -6.33, 72 h, mean n=3 (Fig 3C)): 43.2104% | Mean % Cell Survival ([1]; Control, log (dose) [M] -6.66, 72 h, mean n=3 (Fig 3C)): 52.7161% | Mean % Cell Survival ([1]; Control, log (dose) [M] -7, 72 h, mean n=3 (Fig 3C)): 63.4586% | Mean % Cell Survival ([1]; Control, log (dose) [M] -7.33, 72 h, mean n=3 (Fig 3C)): 71.1117% | Mean % Cell Survival ([1]; Control, log (dose) [M] -7.66, 72 h, mean n=3 (Fig 3C)): 89.3621% | Mean % Cell Survival ([1]; Control, log (dose) [M] -8, 72 h, mean n=3 (Fig 3C)): 91.9585% | IC50 [1]: 0.3 µM | % Cell Survival ([1]; log (dose) [M] -5, individual replicates (Fig 3D)): 15.9071% and 11.1013% and 28.2801% | % Cell Survival ([1]; log (dose) [M] -5.33, individual replicates (Fig 3D)): 20.9802% and 15.9471% and 21.4539% | % Cell Survival ([1]; log (dose) [M] -5.66, individual replicates (Fig 3D)): 25.1075% and 20.6167% and 24.9113% | % Cell Survival ([1]; log (dose) [M] -6, individual replicates (Fig 3D)): 32.8461% and 26.2555% and 28.1028% | % Cell Survival ([1]; log (dose) [M] -6.33, individual replicates (Fig 3D)): 39.8108% and 40.3524% and 49.4681% | % Cell Survival ([1]; log (dose) [M] -6.66, individual replicates (Fig 3D)): 51.9347% and 55.859% and 50.3546% | % Cell Survival ([1]; log (dose) [M] -7, individual replicates (Fig 3D)): 57.6956% and 62.3789% and 70.3014% | % Cell Survival ([1]; log (dose) [M] -7.33, individual replicates (Fig 3D)): 64.4884% and 71.5419% and 77.305% | % Cell Survival ([1]; log (dose) [M] -7.66, individual replicates (Fig 3D)): 94.8409% and 82.7313% and 90.5142% | % Cell Survival ([1]; log (dose) [M] -8, individual replicates (Fig 3D)): 93.6371% and 90.7489% and 91.4894% | NOXA mRNA expression ([2]; ER:RAS cells, 10 nM): 6.84 and 6.41 and 10.09 and 3.28 | NOXA mRNA expression ([3]; 10 nM): 5.65 and 6.34 and 7.72 | Asante Mean intensity [4]: 152.4 and 152.1 and 153.1 and 152.9 and 152.7 | Asante Mean intensity, group mean (Test details, Mean 2) [4]: 152.6 | Asante Mean intensity [5]: 75.6 and 74 and 75.4 and 73.1 and 78 and 73 and 65.7 | Mean (Asante Mean intensity, Tukey test details) [5]: 73.54

CO[C@H]1C[C@H](O[C@H]2CC[C@@]3(C)[C@H](CC[C@@H]4[C@@H]3CC[C@]3(C)[C@@H](C5=CC(=O)OC5)[C@@H](OC(C)=O)C[C@]43O)C2)O[C@@H](C)[C@@H]1O [Oleandrin, oleandrin]
viability at 10 µM ([1]; Homo sapiens, IMR-90, 72 h, Control, log (dose) [M] -5, 72 h, mean n=3 (Fig 3C), read-out: Mean % Cell Survival): 15% | viability at 4.677 µM ([1]; Homo sapiens, IMR-90, 72 h, Control, log (dose) [M] -5.33, 72 h, mean n=3 (Fig 3C), read-out: Mean % Cell Survival): 20% | viability at 2.188 µM ([1]; Homo sapiens, IMR-90, 72 h, Control, log (dose) [M] -5.66, 72 h, mean n=3 (Fig 3C), read-out: Mean % Cell Survival): 20.5% | viability at 1 µM ([1]; Homo sapiens, IMR-90, 72 h, Control, log (dose) [M] -6, 72 h, mean n=3 (Fig 3C), read-out: Mean % Cell Survival): 25.6% | viability at 0.4677 µM ([1]; Homo sapiens, IMR-90, 72 h, Control, log (dose) [M] -6.33, 72 h, mean n=3 (Fig 3C), read-out: Mean % Cell Survival): 24.8% | viability at 0.2188 µM ([1]; Homo sapiens, IMR-90, 72 h, Control, log (dose) [M] -6.66, 72 h, mean n=3 (Fig 3C), read-out: Mean % Cell Survival): 24.3% | viability at 0.1 µM ([1]; Homo sapiens, IMR-90, 72 h, Control, log (dose) [M] -7, 72 h, mean n=3 (Fig 3C), read-out: Mean % Cell Survival): 34.7% | viability at 0.04677 µM ([1]; Homo sapiens, IMR-90, 72 h, Control, log (dose) [M] -7.33, 72 h, mean n=3 (Fig 3C), read-out: Mean % Cell Survival): 53.1% | viability at 0.02188 µM ([1]; Homo sapiens, IMR-90, 72 h, Control, log (dose) [M] -7.66, 72 h, mean n=3 (Fig 3C), read-out: Mean % Cell Survival): 80.8% | viability at 0.01 µM ([1]; Homo sapiens, IMR-90, 72 h, Control, log (dose) [M] -8, 72 h, mean n=3 (Fig 3C), read-out: Mean % Cell Survival): 92.8% | viability at 4.677 µM ([1]; Homo sapiens, IMR-90, control, log (dose) [M] -5.33, individual replicates (Fig 3D), read-out: % Cell Survival): 20.6% | viability at 2.188 µM ([1]; Homo sapiens, IMR-90, control, log (dose) [M] -5.66, individual replicates (Fig 3D), read-out: % Cell Survival): 18.9% | viability at 1 µM ([1]; Homo sapiens, IMR-90, control, log (dose) [M] -6, individual replicates (Fig 3D), read-out: % Cell Survival): 22.9% | viability at 0.4677 µM ([1]; Homo sapiens, IMR-90, control, log (dose) [M] -6.33, individual replicates (Fig 3D), read-out: % Cell Survival): 19.9% | viability at 0.2188 µM ([1]; Homo sapiens, IMR-90, control, log (dose) [M] -6.66, individual replicates (Fig 3D), read-out: % Cell Survival): 22.4% | viability at 0.1 µM ([1]; Homo sapiens, IMR-90, control, log (dose) [M] -7, individual replicates (Fig 3D), read-out: % Cell Survival): 31.3% | viability at 0.04677 µM ([1]; Homo sapiens, IMR-90, control, log (dose) [M] -7.33, individual replicates (Fig 3D), read-out: % Cell Survival): 54.6% | viability at 0.02188 µM ([1]; Homo sapiens, IMR-90, control, log (dose) [M] -7.66, individual replicates (Fig 3D), read-out: % Cell Survival): 71% | viability at 0.01 µM ([1]; Homo sapiens, IMR-90, control, log (dose) [M] -8, individual replicates (Fig 3D), read-out: % Cell Survival): 82.4% | IC50 ([1]; Homo sapiens, IMR-90): 0.085 µM | NOXA mRNA expression, group mean (Test details, Mean 2) ([2]; ER:RAS cells, 10 nM, mean of n=4): 49.05 | NOXA mRNA expression ([2]; ER:RAS cells, 10 nM): 43.71 and 48.67 and 52.89 and 50.91 | NOXA mRNA expression, in words ([2]; OIS IMR90 ER:RAS, 10 nM (Fig. 5c)): significant increase | NOXA mRNA expression, group mean (Test details, Mean 2) ([3]; Replicative Senescence (RS) cells, 10 nM, mean of n=3): 56.63 | NOXA mRNA expression ([3]; 10 nM): 62.46 and 54.37 and 53.07 | NOXA mRNA expression, in words ([3]; replicative senescence IMR90, 10 nM (Fig. 5d)): significant increase | Asante Mean intensity [4]: 145.1 and 146.6 and 146 and 145.5 and 145.6 | Asante Mean intensity, group mean (Test details, Mean 2) [4]: 145.7 | K+ intracellular concentration, in words ([4]; replicative senescence IMR90, 10 nM, 72 h): significantly reduced | Asante Mean intensity [5]: 67.9 and 72 and 68.8 and 66.6 and 77 and 61.9 | Mean (Asante Mean intensity, Tukey test details) [5]: 68.87 | K+ intracellular concentration, in words ([5]; OIS IMR90, 10 nM, 72 h): significantly reduced
